Experimental data: PubChem BioAssay AID248 (DTP/NCI, 2004)
Several values for one entry are separate records, joined by “and”; a condition that tells them apart may be missing. Identical values can stand only once. Inconclusive results and toxic doses are left out.

Tested on: L1210 leukemia ip in BDF1 mice, survival T/C
Assay: NCI In Vivo Anticancer Drug Screen. Data for tumor model L1210 Leukemia (intraperitoneal) in B6D2F1 (BDF1) mice
Conditions: endpoint: mean survival time, higher = longer survival
Procedure, shortened: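 Tumor cells were implanted, animals were treated, and survival was followed. The result divides the treated measurement by the vehicle-control measurement.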

[1] = dose: 100.0 mg/kg/injection, schedule: Q01DX009 (ip), vehicle: saline with Tween-80
[2] = dose: 100.0 mg/kg/injection, schedule: Q04DX003 (ip), vehicle: saline with Tween-80
[3] = dose: 200.0 mg/kg/injection, schedule: Q04DX003 (ip), vehicle: saline with Tween-80
[4] = dose: 100.0 mg/kg/injection, schedule: Q04DX003 (ip), vehicle: Klucel (hydroxypropylcellulose) (HPC)
[5] = dose: 200.0 mg/kg/injection, schedule: Q04DX003 (ip), vehicle: Klucel (hydroxypropylcellulose) (HPC)
[6] = dose: 400.0 mg/kg/injection, schedule: Q04DX003 (ip), vehicle: Klucel (hydroxypropylcellulose) (HPC)
[7] = dose: 100.0 mg/kg/injection, schedule: Q04DX002 (ip), vehicle: saline
[8] = dose: 200.0 mg/kg/injection, schedule: Q04DX002 (ip), vehicle: saline
[9] = dose: 100.0 mg/kg/injection, schedule: Q01DX009 (ip), vehicle: Klucel (hydroxypropylcellulose) (HPC)
[10] = dose: 200.0 mg/kg/injection, schedule: Q01DX009 (ip), vehicle: Klucel (hydroxypropylcellulose) (HPC)
[11] = dose: 400.0 mg/kg/injection, schedule: Q01DX009 (ip), vehicle: Klucel (hydroxypropylcellulose) (HPC)
[12] = dose: 100.0 mg/kg/injection, schedule: Q04DX002 (ip), vehicle: Klucel (hydroxypropylcellulose) (HPC)
[13] = dose: 200.0 mg/kg/injection, schedule: Q04DX002 (ip), vehicle: Klucel (hydroxypropylcellulose) (HPC)
[14] = dose: 400.0 mg/kg/injection, schedule: Q04DX002 (ip), vehicle: Klucel (hydroxypropylcellulose) (HPC)
[15] = dose: 100.0 mg/kg/injection, schedule: Q01DX001 (ip), vehicle: saline with Tween-80

For `COC(=O)Nc1cccc(NC(=O)C(=O)O)c1`, the T/C (dose: 25.0 mg/kg/injection, schedule: Q01DX009 (ip), vehicle: saline with Tween-80) was 105 % of control, the T/C (dose: 25.0 mg/kg/injection, schedule: Q04DX003 (ip), vehicle: saline with Tween-80) was 107 % of control and the T/C (dose: 50.0 mg/kg/injection, schedule: Q01DX009 (ip), vehicle: saline with Tween-80) was 98 % of control. For the same compound, the T/C (dose: 50.0 mg/kg/injection, schedule: Q04DX003 (ip), vehicle: saline with Tween-80) was 105 % of control, the T/C [1] was 102 % of control and the T/C [2] was 94 % of control and 100 % of control. For the same compound, the T/C [3] was 105 % of control.
`CN=C(NC)c1ccc(NC(=O)/C=C/C(=O)Nc2ccc(C(=NC)NC)cc2)cc1` was tested, and the T/C (dose: 12.5 mg/kg/injection, schedule: Q01DX Z (ip), vehicle: carboxymethylcellulose (CMC)) was 97 % of control, the T/C (dose: 25.0 mg/kg/injection, schedule: Q01DX Z (ip), vehicle: carboxymethylcellulose (CMC)) was 91 % of control and the T/C (dose: 50.0 mg/kg/injection, schedule: Q01DX Z (ip), vehicle: carboxymethylcellulose (CMC)) was 99 % of control.
In the case of `O=S1C(c2ccccc2)CC1c1ccccc1` (centres undefined), the T/C [4] is reported as 100 % of control, the T/C [5] is reported as 105 % of control and the T/C [6] is reported as 96 % of control.
With `O=C(NC(=S)Nc1cccc2ccccc12)c1ccccc1F` the T/C [7] was 102 % of control, the T/C [8] was 88 % of control and the T/C (dose: 400.0 mg/kg/injection, schedule: Q04DX002 (ip), vehicle: saline) was 102 % of control.
`NC(=O)/C=C/c1ccc([N+](=O)[O-])cc1` was tested, and the T/C [4] was 97 % of control, the T/C [5] was 100 % of control and the T/C [6] was 97 % of control.
With `O=C(O)CNc1ccccc1C(=O)O` the T/C [9] was 105 % of control, the T/C [4] was 102 % of control and the T/C [10] was 98 % of control. The T/C [5] was 97 % of control, the T/C [11] was 92 % of control and the T/C [6] was 96 % of control.
With `Cc1ccc(C(=O)c2ccc(C)cc2)cc1` the T/C (dose: 12.5 mg/kg/injection, schedule: Q04DX002 (ip), vehicle: Klucel (hydroxypropylcellulose) (HPC)) was 91 % of control, the T/C (dose: 25.0 mg/kg/injection, schedule: Q04DX002 (ip), vehicle: Klucel (hydroxypropylcellulose) (HPC)) was 94 % of control and the T/C (dose: 50.0 mg/kg/injection, schedule: Q04DX002 (ip), vehicle: Klucel (hydroxypropylcellulose) (HPC)) was 97 % of control. For the same compound, the T/C [9] was 101 % of control, the T/C [7] was 101 % of control and the T/C [4] was 100 % of control. For the same compound, the T/C [10] was 97 % of control, the T/C [8] was 101 % of control and the T/C [5] was 89 % of control. The T/C [11] was 98 % of control and the T/C [6] was 100 % of control.
For `Cc1cc(C)c(S(=O)(=O)c2ccc(F)cc2)c(C)c1`, the T/C [1] was 98 % of control, the T/C (dose: 200.0 mg/kg/injection, schedule: Q01DX009 (ip), vehicle: saline with Tween-80) was 98 % of control and the T/C (dose: 400.0 mg/kg/injection, schedule: Q01DX009 (ip), vehicle: saline with Tween-80) was 101 % of control.
`O=S(=O)(/N=C(Cl)/C(Cl)=N/S(=O)(=O)c1ccccc1)c1ccccc1` was tested, and the T/C [4] was 95 % of control, the T/C [5] was 100 % of control and the T/C [6] was 95 % of control.
`CCOC(=O)NC(=S)Nc1ccccc1NC(=S)NC(=O)OCC` was tested, and the T/C (dose: 100.0 mg/kg/injection, schedule: Q04DX003 (ip), vehicle: gum acacia) was 97 % of control, the T/C (dose: 200.0 mg/kg/injection, schedule: Q04DX003 (ip), vehicle: gum acacia) was 97 % of control and the T/C (dose: 400.0 mg/kg/injection, schedule: Q04DX003 (ip), vehicle: gum acacia) was 94 % of control.
In the case of `Cc1cc(N=Cc2cccc([N+](=O)[O-])c2O)c2ccccc2n1`, the T/C (dose: 100.0 mg/kg/injection, schedule: Q01DX001 (ip), vehicle: other) is reported as 101 % of control.
For `O=C1C2CCCCC2C(=O)N1C1=NC=NC2=NC=NC21` (centres undefined), the T/C [2] was 98 % of control, the T/C [3] was 101 % of control and the T/C (dose: 400.0 mg/kg/injection, schedule: Q04DX003 (ip), vehicle: saline with Tween-80) was 95 % of control.
With `CCOC(=O)CNc1cccc(Br)c1` the T/C [12] was 107 % of control, the T/C [13] was 100 % of control and the T/C [14] was 103 % of control.
In the case of `CC(C)=CCC/C(C)=C/COC(N)=O`, the T/C (dose: 100.0 mg/kg/injection, schedule: Q04DX002 (ip), vehicle: saline with Tween-80) is reported as 100 % of control and 101 % of control and the T/C (dose: 200.0 mg/kg/injection, schedule: Q04DX002 (ip), vehicle: saline with Tween-80) is reported as 100 % of control and 99 % of control.
In the case of `NP(O)(O)=S`, the T/C (dose: 9.38 mg/kg/injection, schedule: Q01DX001 (ip), vehicle: saline) is reported as 104 % of control and the T/C (dose: 18.75 mg/kg/injection, schedule: Q01DX001 (ip), vehicle: saline) is reported as 98 % of control.
For `C1=CCC2CN(CCCN3CCOCC3)CC2C1` (centres undefined), the T/C [15] was 103 % of control, the T/C (dose: 200.0 mg/kg/injection, schedule: Q01DX001 (ip), vehicle: saline with Tween-80) was 108 % of control and the T/C (dose: 400.0 mg/kg/injection, schedule: Q01DX001 (ip), vehicle: saline with Tween-80) was 105 % of control.
For `CN(N)c1cc(=O)[nH]c(N)n1`, the T/C [12] was 101 % of control, the T/C [13] was 97 % of control and the T/C [14] was 92 % of control.
With `CCC(C)N=[N+]([O-])CC` (centres undefined) the T/C (dose: 100.0 mg/kg/injection, schedule: Q01DX001 (ip), vehicle: acetone) was 101 % of control, the T/C (dose: 200.0 mg/kg/injection, schedule: Q01DX001 (ip), vehicle: acetone) was 112 % of control and the T/C (dose: 400.0 mg/kg/injection, schedule: Q01DX001 (ip), vehicle: acetone) was 91 % of control.
`O=C(Nc1cccc(C(F)(F)F)c1)N(Cc1ccccc1)c1ccccc1` was tested, and the T/C [9] was 109 % of control, the T/C [10] was 95 % of control and the T/C [11] was 96 % of control.
`NC(=O)c1ccccc1OCc1ccccc1` was tested, and the T/C (dose: 75.0 mg/kg/injection, schedule: Q04DX003 (ip), vehicle: Klucel (hydroxypropylcellulose) (HPC)) was 97 % of control, the T/C (dose: 150.0 mg/kg/injection, schedule: Q04DX003 (ip), vehicle: Klucel (hydroxypropylcellulose) (HPC)) was 99 % of control and the T/C (dose: 300.0 mg/kg/injection, schedule: Q04DX003 (ip), vehicle: Klucel (hydroxypropylcellulose) (HPC)) was 91 % of control.
In the case of `FC(F)(F)c1nc2nc(Cl)c(Cl)nc2[nH]1`, the T/C (dose: 6.25 mg/kg/injection, schedule: Q01DX009 (ip), vehicle: saline) is reported as 99 % of control, the T/C (dose: 12.5 mg/kg/injection, schedule: Q01DX009 (ip), vehicle: saline) is reported as 94 % of control and the T/C (dose: 25.0 mg/kg/injection, schedule: Q01DX001 (ip), vehicle: saline with Tween-80) is reported as 106 % of control. For the same compound, the T/C (dose: 25.0 mg/kg/injection, schedule: Q01DX009 (ip), vehicle: other) was 95 % of control, the T/C (dose: 25.0 mg/kg/injection, schedule: Q01DX009 (ip), vehicle: saline) was 103 % of control and the T/C (dose: 33.0 mg/kg/injection, schedule: Q01DX009 (ip), vehicle: other) was 113 % of control. For the same compound, the T/C (dose: 44.0 mg/kg/injection, schedule: Q04DX003 (ip), vehicle: other) was 121 % of control, the T/C (dose: 44.0 mg/kg/injection, schedule: Q04DX003 (ip), vehicle: saline sonified) was 94 % of control and the T/C (dose: 44.0 mg/kg/injection, schedule: Q04DX003 (ip), vehicle: saline with Tween-80) was 102 % of control and 103 % of control. For the same compound, the T/C (dose: 50.0 mg/kg/injection, schedule: Q01DX001 (ip), vehicle: saline with Tween-80) was 96 % of control, the T/C (dose: 50.0 mg/kg/injection, schedule: Q01DX009 (ip), vehicle: saline) was 116 % of control and the T/C (dose: 66.0 mg/kg/injection, schedule: Q04DX003 (ip), vehicle: saline sonified) was 122 % of control. The T/C (dose: 66.0 mg/kg/injection, schedule: Q04DX003 (ip), vehicle: saline with Tween-80) was 109 % of control, the T/C [15] was 110 % of control and the T/C [4] was 154 % of control. For the same compound, the T/C (dose: 100.0 mg/kg/injection, schedule: Q04DX003 (ip), vehicle: other) was 176 % of control, the T/C (dose: 100.0 mg/kg/injection, schedule: Q04DX003 (ip), vehicle: saline sonified) was 159 % of control and the T/C [2] was 153 % of control and 156 % of control. For the same compound, the T/C (dose: 150.0 mg/kg/injection, schedule: Q04DX003 (ip), vehicle: saline with Tween-80) was 102 % of control.
In the case of `CCOC(=O)C1CC2(c3ccccc3)C(c3ccccc3)=C(c3ccccc3)C1(c1ccccc1)C2O` (centres undefined), the T/C (dose: 50.0 mg/kg/injection, schedule: Q01DX001 (ip), vehicle: carboxymethylcellulose (CMC)) is reported as 94 % of control, the T/C (dose: 100.0 mg/kg/injection, schedule: Q01DX001 (ip), vehicle: carboxymethylcellulose (CMC)) is reported as 94 % of control and the T/C (dose: 200.0 mg/kg/injection, schedule: Q01DX001 (ip), vehicle: carboxymethylcellulose (CMC)) is reported as 103 % of control. For the same compound, the T/C (dose: 400.0 mg/kg/injection, schedule: Q01DX001 (ip), vehicle: carboxymethylcellulose (CMC)) was 94 % of control.
